Assay results: patent publication US20250304567A1, “PYRROLIDIONE DERIVATIVES AS INHIBITORS OF NF KAPPA B INDUCING KINASE” (priority 2022, published 2025)

Assays:
[1] = system: p-IKKa levels in L363 (NIK translocated multiple myeloma) cells; test: Effect of compounds on p-IKKa levels in L363 (NIK translocated multiple myeloma) cells (AlphaLISA SureFire Ultra p-IKKa Ser176/180); type: cell-based, human; details: Homo sapiens, L-363, p-IKKa levels in L363 cells; average if tested more than once; read-out: Assay 2 IC50
Procedure, shortened: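 L363 multiple myeloma cells, BAFF-stimulated overnight (250 ng/ml), then 6 h at 37 °C with compound (11-point 1:3 series, 0.3% DMSO) plus BAFF and 10 μM MG132. p-IKKa Ser176/180 read by AlphaLISA SureFire Ultra; IC50 from sigmoidal fit normalised to stimulated and unstimulated controls.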

[2] = biological target: Recombinant Human NF-kappaB-Inducing Kinase (NIK/MAP3K14) (Homo sapiens, UniProt Q99558); test: Inhibition of auto-phosphorylation of recombinant human NIK/MAP3K14 activity (AlphaScreen); type: biochemical; details: 5 μM ATP, 1 nM NIK, average if tested more than once
Procedure, shortened: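 GST-tagged NIK (1 nM) auto-phosphorylation with 5 μM ATP, 2 h at 25 °C, pH 7.5 Tris buffer, 0.7% DMSO; stopped with anti-phospho-IKK Ser176/180 antibody and read by AlphaScreen. Signal normalized to full-activity and no-enzyme/no-ATP controls; IC50 from sigmoidal fit of % inhibition vs log concentration.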

Sequence of Recombinant Human NF-kappaB-Inducing Kinase (NIK/MAP3K14) (Q99558 whole entry): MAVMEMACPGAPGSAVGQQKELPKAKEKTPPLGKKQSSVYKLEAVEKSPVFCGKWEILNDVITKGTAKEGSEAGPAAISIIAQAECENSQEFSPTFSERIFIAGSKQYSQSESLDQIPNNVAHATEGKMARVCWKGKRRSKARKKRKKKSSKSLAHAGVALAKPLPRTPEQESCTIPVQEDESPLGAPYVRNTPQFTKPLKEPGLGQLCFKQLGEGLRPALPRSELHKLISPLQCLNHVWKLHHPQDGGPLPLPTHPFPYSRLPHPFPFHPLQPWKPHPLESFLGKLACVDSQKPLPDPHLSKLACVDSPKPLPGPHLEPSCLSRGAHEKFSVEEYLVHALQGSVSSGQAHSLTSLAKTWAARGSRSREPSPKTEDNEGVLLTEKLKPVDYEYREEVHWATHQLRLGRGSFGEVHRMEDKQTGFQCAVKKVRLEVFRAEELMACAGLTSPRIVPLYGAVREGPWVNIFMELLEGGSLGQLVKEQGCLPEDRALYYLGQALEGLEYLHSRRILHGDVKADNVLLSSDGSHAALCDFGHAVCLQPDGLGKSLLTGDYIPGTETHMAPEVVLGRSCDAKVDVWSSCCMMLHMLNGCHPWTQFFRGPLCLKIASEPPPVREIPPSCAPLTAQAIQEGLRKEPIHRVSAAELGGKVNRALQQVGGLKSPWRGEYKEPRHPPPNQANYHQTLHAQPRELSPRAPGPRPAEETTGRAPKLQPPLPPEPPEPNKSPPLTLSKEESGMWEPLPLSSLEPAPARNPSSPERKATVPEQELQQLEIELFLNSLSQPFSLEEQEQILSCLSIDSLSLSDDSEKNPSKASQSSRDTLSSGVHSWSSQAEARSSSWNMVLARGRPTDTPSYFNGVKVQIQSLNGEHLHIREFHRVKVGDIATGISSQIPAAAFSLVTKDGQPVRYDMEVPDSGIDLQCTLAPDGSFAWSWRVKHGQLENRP

SMILES	IC50 [1]	IC50 [2]
CN1CC[C@@](O)(c2cccc(-c3nc(-c4ccnc(Nc5ccn(C(F)(F)F)n5)n4)cs3)c2)C1=O [Example 257, (R)-3-Hydroxy-1-methyl-3-(3-(4-(2-((1-(trifluoromethyl)-1H-pyrazol-3-yl)amino)pyrimidin-4-yl)thiazol-2-yl)phenyl)pyrrolidin-2-one]	> 501 nM	< 100 nM
CN1CC[C@@](O)(c2cccc(-c3nc(-c4ccnc(Nc5ccn(CC(F)F)n5)n4)cs3)c2)C1=O [Example 258, (R)-3-(3-(4-(2-((1-(2,2-Difluoroethyl)-1H-pyrazol-3-yl)amino)pyrimidin-4-yl)thiazol-2-yl)phenyl)-3-hydroxy-1-methylpyrrolidin-2-one]	100 to 500 nM	< 100 nM
CN1CC[C@@](O)(c2cccc(-c3nc(-c4ccnc(Nc5ccn(C6CC6)n5)n4)cs3)c2)C1=O [Example 259, (R)-3-(3-(4-(2-((1-Cyclopropyl-1H-pyrazol-3-yl)amino)pyrimidin-4-yl)thiazol-2-yl)phenyl)-3-hydroxy-1-methylpyrrolidin-2-one]	100 to 500 nM	< 100 nM
COCCn1ccc(Nc2nccc(-c3csc(-c4cccc([C@]5(O)CCN(C)C5=O)c4)n3)n2)n1 [Example 260, (R)-3-Hydroxy-3-(3-(4-(2-((1-(2-methoxyethyl)-1H-pyrazol-3-yl)amino)pyrimidin-4-yl)thiazol-2-yl)phenyl)-1-methylpyrrolidin-2-one]	100 to 500 nM	< 100 nM
CN1CC[C@@](O)(c2cccc(-c3nc(-c4ccnc(Nc5cc(Cl)n(C)n5)n4)cs3)c2)C1=O [Example 261, (R)-3-(3-(4-(2-((5-Chloro-1-methyl-1H-pyrazol-3-yl)amino)pyrimidin-4-yl)thiazol-2-yl)phenyl)-3-hydroxy-1-methylpyrrolidin-2-one]	100 to 500 nM	< 100 nM
CN(C)C(=O)Cn1ccc(Nc2nccc(-c3csc(-c4cccc([C@]5(O)CCN(C)C5=O)c4)n3)n2)n1 [Example 262, (R)-2-(3-((4-(2-(3-(3-Hydroxy-1-methyl-2-oxopyrrolidin-3-yl)phenyl)thiazol-4-yl)pyrimidin-2-yl)amino)-1H-pyrazol-1-y)-N,N-dimethylacetamide]	> 501 nM	< 100 nM
CN1CC[C@@](O)(c2cccc(-c3nc(-c4ccnc(Nc5cnn(C6CC6)c5)n4)cs3)c2)C1=O [Example 263, (R)-3-(3-(4-(2-((1-Cyclopropyl-1H-pyrazol-4-yl)amino)pyrimidin-4-yl)thiazol-2-yl)phenyl)-3-hydroxy-1-methylpyrrolidin-2-one]	100 to 500 nM	< 100 nM
CN1CC[C@@](O)(c2cccc(-c3nc(-c4ccnc(Nc5cnn6ccccc56)n4)cs3)c2)C1=O [Example 264, (R)-3-Hydroxy-1-methyl-3-(3-(4-(2-(pyrazolo[1,5-a]pyridin-3-ylamino)pyrimidin-4-yl)thiazol-2-yl)phenyl)pyrrolidin-2-one]	< 100 nM	< 100 nM
COCCn1cc(Nc2nccc(-c3csc(-c4cccc([C@]5(O)CCN(C)C5=O)c4)n3)n2)cn1 [Example 265, (R)-3-Hydroxy-3-(3-(4-(2-((1-(2-methoxyethyl)-1H-pyrazol-4-yl)amino)pyrimidin-4-yl)thiazol-2-yl)phenyl)-1-methylpyrrolidin-2-one]	100 to 500 nM	< 100 nM
CN1CC[C@@](O)(c2cccc(-c3nc(-c4ccnc(Nc5ccon5)n4)cs3)c2)C1=O [Example 266, (R)-3-Hydroxy-3-(3-(4-(2-(isoxazol-3-ylamino)pyrimidin-4-yl)thiazol-2-yl)phenyl)-1-methylpyrrolidin-2-one]	100 to 500 nM	< 100 nM
CN1CC[C@@](O)(c2cccc(-c3nc(-c4ccnc(Nc5ccnnc5)n4)cs3)c2)C1=O [Example 267, (R)-3-hydroxy-1-methyl-3-(3-(4-(2-(pyridazin-4-ylamino)pyrimidin-4-yl)thiazol-2-yl)phenyl)pyrrolidin-2-one]	> 501 nM	> 501 nM
CCn1cc(Nc2nccc(-c3csc(-c4cccc([C@]5(O)CCN(C)C5=O)c4)n3)n2)cn1 [Example 268, (R)-3-(3-(4-(2-((1-ethyl-1H-pyrazol-4-yl)amino)pyrimidin-4-yl)thiazol-2-yl)phenyl)-3-hydroxy-1-methylpyrrolidin-2-one]	100 to 500 nM	< 100 nM
Cc1nn(C)cc1Nc1nccc(-c2csc(-c3cccc([C@]4(O)CCN(C)C4=O)c3)n2)n1 [Example 269, (R)-3-(3-(4-(2-((1,3-dimethyl-1H-pyrazol-4-yl)amino)pyrimidin-4-yl)thiazol-2-yl)phenyl)-3-hydroxy-1-methylpyrrolidin-2-one]	< 100 nM	< 100 nM
CCn1cc(Nc2nccc(-c3csc(-c4cccc([C@]5(O)CCN(C)C5=O)c4)n3)n2)c(C)n1 [Example 270, (R)-3-(3-(4-(2-((1-Ethyl-3-methyl-1H-pyrazol-4-yl)amino)pyrimidin-4-yl)thiazol-2-yl)phenyl)-3-hydroxy-1-methylpyrrolidin-2-one]	< 100 nM	< 100 nM
CN1CC[C@@](O)(c2cccc(-c3nc(-c4ccnc(Nc5cnn(C(F)F)c5)n4)cs3)c2)C1=O [Example 271, (R)-3-(3-(4-(2-((1-(Difluoromethyl)-1H-pyrazol-4-yl)amino)pyrimidin-4-yl)thiazol-2-yl)phenyl)-3-hydroxy-1-methylpyrrolidin-2-one]	100 to 500 nM	< 100 nM
CN1CC[C@@](O)(c2cccc(-c3nc(-c4ccnc(Nc5nc6ccccc6n5C)n4)cs3)c2)C1=O [Example 272, (R)-3-Hydroxy-1-methyl-3-(3-(4-(2-((1-methyl-1H-benzo[d]imidazol-2-yl)amino)pyrimidin-4-yl)thiazol-2-yl)phenyl)pyrrolidin-2-one]	> 501 nM	> 501 nM
CN1CC[C@@](O)(c2cccc(-c3nc(-c4ccnc(Nc5cnn(C6CCOCC6)c5)n4)cs3)c2)C1=O [Example 273, (R)-3-Hydroxy-1-methyl-3-(3-(4-(2-((1-(tetrahydro-2H-pyran-4-yl)-1H-pyrazol-4-yl)amino)pyrimidin-4-yl)thiazol-2-yl)phenyl)pyrrolidin-2-one]	< 100 nM	< 100 nM
Cc1cnoc1Nc1nccc(-c2csc(-c3cccc([C@]4(O)CCN(C)C4=O)c3)n2)n1 [Example 274, (R)-3-Hydroxy-1-methyl-3-(3-(4-(2-((4-methylisoxazol-5-yl)amino)pyrimidin-4-yl)thiazol-2-yl)phenyl)pyrrolidin-2-one]	> 501 nM	> 501 nM
Cc1nocc1Nc1nccc(-c2csc(-c3cccc([C@]4(O)CCN(C)C4=O)c3)n2)n1 [Example 275, (R)-3-Hydroxy-1-methyl-3-(3-(4-(2-((3-methylisoxazol-4-yl)amino)pyrimidin-4-yl)thiazol-2-yl)phenyl)pyrrolidin-2-one]	< 100 nM	< 100 nM
CC(C)n1cc(Nc2nccc(-c3csc(-c4cccc([C@]5(O)CCN(C)C5=O)c4)n3)n2)cn1 [Example 276, (R)-3-Hydroxy-3-(3-(4-(2-((1-isopropyl-1H-pyrazol-4-yl)amino)pyrimidin-4-yl)thiazol-2-yl)phenyl)-1-methylpyrrolidin-2-one]	< 100 nM	< 100 nM
CN1CC[C@@](O)(c2cccc(-c3nc(-c4ccnc(Nc5cc6ccccn6n5)n4)cs3)c2)C1=O [Example 277, (R)-3-Hydroxy-1-methyl-3-(3-(4-(2-(pyrazolo[1,5-a]pyridin-2-ylamino)pyrimidin-4-yl)thiazol-2-yl)phenyl)pyrrolidin-2-one]	> 501 nM	100 to 500 nM
CN1CC[C@@](O)(c2cccc(-c3nc(-c4ccnc(Nc5ccnn5CC(F)F)n4)cs3)c2)C1=O [Example 278, (R)-3-(3-(4-(2-((1-(2,2-Difluoroethyl)-1H-pyrazol-5-yl)amino)pyrimidin-4-yl)thiazol-2-yl)phenyl)-3-hydroxy-1-methylpyrrolidin-2-one]	> 501 nM	100 to 500 nM
CN1CC[C@@](O)(c2cccc(-c3nc(-c4ccnc(Nc5cnc6ccc(F)cn56)n4)cs3)c2)C1=O [Example 279, (R)-3-(3-(4-(2-((6-Fluoroimidazo[1,2-a]pyridin-3-yl)amino)pyrimidin-4-yl)thiazol-2-yl)phenyl)-3-hydroxy-1-methylpyrrolidin-2-one]	> 501 nM	> 501 nM
CN1CC[C@@](O)(c2cccc(-c3nc(-c4ccnc(Nc5cn(C)nc5C(F)(F)F)n4)cs3)c2)C1=O [Example 280, (R)-3-Hydroxy-1-methyl-3-(3-(4-(2-((1-methyl-3-(trifluoromethyl)-1H-pyrazol-4-yl)amino)pyrimidin-4-yl)thiazol-2-yl)phenyl)pyrrolidin-2-one]	100 to 500 nM	< 100 nM
CN1CC[C@@](O)(c2cccc(-c3nc(-c4ccnc(Nc5cc(C(F)(F)F)nn5C)n4)cs3)c2)C1=O [Example 281, (R)-3-Hydroxy-1-methyl-3-(3-(4-(2-((1-methyl-3-(trifluoromethyl)-1H-pyrazol-5-yl)amino)pyrimidin-4-yl)thiazol-2-yl)phenyl)pyrrolidin-2-one]	> 501 nM	< 100 nM
CN1CC[C@@](O)(c2cccc(-c3nc(-c4ccnc(Nc5cccnc5OC(F)F)n4)cs3)c2)C1=O [Example 282, (R)-3-(3-(4-(2-((2-(Difluoromethoxy)pyridin-3-yl)amino)pyrimidin-4-yl)thiazol-2-yl)phenyl)-3-hydroxy-1-methylpyrrolidin-2-one]	100 to 500 nM	< 100 nM
